Experimental data: ChEMBL document CHEMBL1909570, “Synthesis and antibacterial activity of N4-mono alkyl derivatives of novel glycopeptide LYV07ww01” (2011)
Converted amounts (≈) assume the structure as drawn.

What was measured:
Assay type in all cases: functional
[1] = system: Staphylococcus epidermidis; experiment: Antibacterial activity against Staphylococcus epidermidis 26069 by CLSI agar microdilution method
Enterococcus faecium [2] = experiment: Antibacterial activity against vancomycin-resistant Enterococcus faecium MEFA 0039 by CLSI agar microdilution method
Streptococcus pneumoniae [3] = experiment: Antibacterial activity against Streptococcus pneumoniae 31002 by CLSI agar microdilution method
Streptococcus = experiment: Antibacterial activity against Streptococcus gamma 32206 by CLSI agar microdilution method
Staphylococcus aureus [4] = experiment: microbe, parasite or virus in culture; details: ATCC 25923
Description: Antibacterial activity against methicillin-sensitive Staphylococcus aureus ATCC 25923 by CLSI agar microdilution method

Enterococcus faecalis [5] = experiment: microbe, parasite or virus in culture; details: ATCC 51299
Staphylococcus = experiment: Antibacterial activity against Staphylococcus albus 26101 by CLSI agar microdilution method
Enterococcus faecalis [6] = experiment: microbe, parasite or virus in culture; details: ATCC 29212
Description: Antibacterial activity against vancomycin-sensitive Enterococcus faecalis ATCC 29212 by CLSI agar microdilution method

Enterococcus faecium [7] = experiment: Antibacterial activity against Enterococcus faecium 32220 by CLSI agar microdilution method
Enterococcus faecium [8] = experiment: Antibacterial activity against vancomycin-sensitive Enterococcus faecium ATCC 35667 by CLSI agar microdilution method
Streptococcus pneumoniae [9] = experiment: Antibacterial activity against penicillin-resistant Streptococcus pneumoniae MSPN 0003 by CLSI broth microdilution method
Staphylococcus aureus [10] = experiment: microbe, parasite or virus in culture; details: ATCC 33591
Description: Antibacterial activity against methicillin-resistant Staphylococcus aureus ATCC 33591 by CLSI agar microdilution method

Staphylococcus aureus [11] = experiment: Antibacterial activity against Staphylococcus aureus 26003 by CLSI agar microdilution method
Streptococcus pneumoniae [12] = experiment: Antibacterial activity against penicillin-intermediate Streptococcus pneumoniae ATCC 49619 by CLSI broth microdilution method
Enterococcus faecalis [13] = experiment: Antibacterial activity against vancomycin-resistant Enterococcus faecalis ATCC 51299 by CLSI agar microdilution method relative to vancomycin
Enterococcus faecium [14] = experiment: Antibacterial activity against vancomycin-sensitive Enterococcus faecium ATCC 35667 by CLSI agar microdilution method relative to LYV07ww01

SMILES | MIC [1] [µg/mL] | MIC (Enterococcus faecium [2]) [µg/mL] | MIC (Streptococcus pneumoniae [3]) [µg/mL] | MIC (Streptococcus) [µg/mL] | MIC (Staphylococcus aureus [4]) [µg/mL] | MIC (Enterococcus faecalis [5]) [µg/mL] | MIC (Staphylococcus) [µg/mL] | MIC (Enterococcus faecalis [6]) [µg/mL] | MIC (Enterococcus faecium [7]) [µg/mL] | MIC (Enterococcus faecium [8]) [µg/mL] | MIC (Streptococcus pneumoniae [9]) [µg/mL] | MIC (Staphylococcus aureus [10]) [µg/mL] | MIC (Staphylococcus aureus [11]) [µg/mL] | MIC (Streptococcus pneumoniae [12]) [µg/mL] | fold change (FC) (Enterococcus faecalis [13]) | fold change (FC) (Enterococcus faecium [14])
CN[C@H](CC(C)C)C(=O)N[C@H]1C(=O)N[C@@H](CC(N)=O)C(=O)N[C@H]2C(=O)N[C@H]3C(=O)N[C@H](C(=O)N[C@@H](C(=O)O)c4cc(O)cc(O)c4-c4cc3ccc4O)[C@H](O[C@H]3C[C@](C)(N)[C@H](O)[C@H](C)O3)c3ccc(c(Cl)c3)Oc3cc2cc(c3O[C@@H]2O[C@H](CO)[C@@H](O)[C@H](O)[C@H]2O[C@H]2C[C@](C)(N)[C@H](O)[C@H](C)O2)Oc2ccc(cc2Cl)[C@H]1O | > 25 | 8 (≈ 5.02 µM) | 0.098 (≈ 0.0615 µM) | 0.78 (≈ 0.49 µM) | 0.25 (≈ 0.157 µM) | 0.5 (≈ 0.314 µM) | 0.78 (≈ 0.49 µM) | 0.25 (≈ 0.157 µM) | 3.13 (≈ 1.97 µM) | 0.125 (≈ 0.0785 µM) | 0.125 (≈ 0.0785 µM) | 0.125 (≈ 0.0785 µM) | 0.39 (≈ 0.245 µM) | 0.063 (≈ 0.0396 µM) | – | –
CN[C@H](CC(C)C)C(=O)N[C@H]1C(=O)N[C@@H](CC(N)=O)C(=O)N[C@H]2C(=O)N[C@H]3C(=O)N[C@H](C(=O)N[C@@H](C(=O)O)c4cc(O)cc(O)c4-c4cc3ccc4O)[C@H](O[C@H]3C[C@](C)(N)[C@H](O)[C@H](C)O3)c3ccc(c(Cl)c3)Oc3cc2cc(c3O[C@@H]2O[C@H](CO)[C@@H](O)[C@H](O)[C@H]2O[C@H]2C[C@](C)(NCc3ccc(Br)cc3)[C@H](O)[C@H](C)O2)Oc2ccc(cc2Cl)[C@H]1O | 6.25 (≈ 3.55 µM) | 2 (≈ 1.14 µM) | 1.56 (≈ 0.886 µM) | 6.25 (≈ 3.55 µM) | 1 (≈ 0.568 µM) | 0.5 (≈ 0.284 µM) | 1.56 (≈ 0.886 µM) | 0.5 (≈ 0.284 µM) | 1.56 (≈ 0.886 µM) | ≤ 0.031 | ≤ 0.031 | 0.5 (≈ 0.284 µM) | 1.56 (≈ 0.886 µM) | ≤ 0.031 | 4 | 4
CCCCN[C@@]1(C)C[C@H](O[C@H]2[C@H](Oc3c4cc5cc3Oc3ccc(cc3Cl)[C@@H](O[C@H]3C[C@](C)(N)[C@H](O)[C@H](C)O3)[C@@H]3NC(=O)[C@H](NC(=O)[C@@H]5NC(=O)[C@H](CC(N)=O)NC(=O)[C@H](NC(=O)[C@@H](CC(C)C)NC)[C@H](O)c5ccc(c(Cl)c5)O4)c4ccc(O)c(c4)-c4c(O)cc(O)cc4[C@H](C(=O)O)NC3=O)O[C@H](CO)[C@@H](O)[C@@H]2O)O[C@@H](C)[C@H]1O | > 25 | 32 (≈ 19.4 µM) | 0.39 (≈ 0.237 µM) | 1.56 (≈ 0.946 µM) | 0.5 (≈ 0.303 µM) | 1 (≈ 0.607 µM) | 1.56 (≈ 0.946 µM) | 0.5 (≈ 0.303 µM) | > 25 | 0.25 (≈ 0.152 µM) | 0.125 (≈ 0.0758 µM) | 0.5 (≈ 0.303 µM) | 0.78 (≈ 0.473 µM) | 0.063 (≈ 0.0382 µM) | – | –
CCCCCN[C@@]1(C)C[C@H](O[C@H]2[C@H](Oc3c4cc5cc3Oc3ccc(cc3Cl)[C@@H](O[C@H]3C[C@](C)(N)[C@H](O)[C@H](C)O3)[C@@H]3NC(=O)[C@H](NC(=O)[C@@H]5NC(=O)[C@H](CC(N)=O)NC(=O)[C@H](NC(=O)[C@@H](CC(C)C)NC)[C@H](O)c5ccc(c(Cl)c5)O4)c4ccc(O)c(c4)-c4c(O)cc(O)cc4[C@H](C(=O)O)NC3=O)O[C@H](CO)[C@@H](O)[C@@H]2O)O[C@@H](C)[C@H]1O | > 25 | – | 0.39 (≈ 0.235 µM) | 0.78 (≈ 0.469 µM) | – | – | 3.13 (≈ 1.88 µM) | – | > 25 | – | – | – | 1.56 (≈ 0.938 µM) | – | – | –
CCCCCCN[C@@]1(C)C[C@H](O[C@H]2[C@H](Oc3c4cc5cc3Oc3ccc(cc3Cl)[C@@H](O[C@H]3C[C@](C)(N)[C@H](O)[C@H](C)O3)[C@@H]3NC(=O)[C@H](NC(=O)[C@@H]5NC(=O)[C@H](CC(N)=O)NC(=O)[C@H](NC(=O)[C@@H](CC(C)C)NC)[C@H](O)c5ccc(c(Cl)c5)O4)c4ccc(O)c(c4)-c4c(O)cc(O)cc4[C@H](C(=O)O)NC3=O)O[C@H](CO)[C@@H](O)[C@@H]2O)O[C@@H](C)[C@H]1O | > 25 | – | 0.78 (≈ 0.465 µM) | 1.56 (≈ 0.93 µM) | – | – | 3.13 (≈ 1.87 µM) | – | > 25 | – | – | – | 1.56 (≈ 0.93 µM) | – | – | –
CCCCCCCN[C@@]1(C)C[C@H](O[C@H]2[C@H](Oc3c4cc5cc3Oc3ccc(cc3Cl)[C@@H](O[C@H]3C[C@](C)(N)[C@H](O)[C@H](C)O3)[C@@H]3NC(=O)[C@H](NC(=O)[C@@H]5NC(=O)[C@H](CC(N)=O)NC(=O)[C@H](NC(=O)[C@@H](CC(C)C)NC)[C@H](O)c5ccc(c(Cl)c5)O4)c4ccc(O)c(c4)-c4c(O)cc(O)cc4[C@H](C(=O)O)NC3=O)O[C@H](CO)[C@@H](O)[C@@H]2O)O[C@@H](C)[C@H]1O | > 25 | – | 0.78 (≈ 0.461 µM) | 1.56 (≈ 0.923 µM) | – | – | 1.56 (≈ 0.923 µM) | – | > 25 | – | – | – | 1.56 (≈ 0.923 µM) | – | – | –
